Measured values from PubChem BioAssay AID1259411 (Chemical Carcinogenesis Research Information System (CCRIS), 2018).
Activity calls are given as the source filed them. How the calls were made is not given here.

System: rodent carcinogenicity bioassays, tumor incidence
Assay: CCRIS carcinogenicity studies
Settings: Dose: 0, Dose: 0
How it was run: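 NCI-built, expert-reviewed records of carcinogenicity and related test outcomes (mutagenicity, tumor promotion/inhibition) compiled from published and report sources, historical span 1985-2011, not updated.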

With `COP(=O)(OC)OC=C(Cl)Cl` the carcinogen call (Species: MOUSE, Strain/Sex: B6C3F1/FEMALE, Route: GAVAGE, 20, 40 MG/KG IN CORN OIL 5 D/WK FOR 103 WK (STUDY DURATION: 104 WK), 20, 40 MG/KG IN CORN OIL 5 D/WK FOR 103 WK (STUDY DURATION: 104 WK), Tumor Site: Type of Lesion: FORESTOMACH: CARCINOMA, SQUAMOUS CELL PAPILLOMA) was “active; positive”, the carcinogen call (Species: MOUSE, Strain/Sex: B6C3F1/FEMALE, Route: GAVAGE, 20, 40 MG/KG IN CORN OIL 5 D/WK FOR 103 WK (STUDY DURATION: 105 WK), 20, 40 MG/KG IN CORN OIL 5 D/WK FOR 103 WK (STUDY DURATION: 105 WK), Tumor Site: Type of Lesion: FORESTOMACH: SQUAMOUS PAPILLOMA, SQUAMOUS CELL PAPILLOMA OR CARCINOMA) was “active; positive” and the carcinogen call (Species: MOUSE, Strain/Sex: B6C3F1/FEMALE, Route: ORAL, 317, 635 PPM IN DIET, TWA, 317, 635 PPM IN DIET, TWA) was “inactive; negative”. For the same compound, the carcinogen call (Species: MOUSE, Strain/Sex: B6C3F1/MALE, Route: GAVAGE, 10, 20 MG/KG IN CORN OIL 5 D/WK FOR 103 WK (STUDY DURATION: 104 WK), 10, 20 MG/KG IN CORN OIL 5 D/WK FOR 103 WK (STUDY DURATION: 104 WK), Tumor Site: Type of Lesion: FORESTOMACH: SQUAMOUS CELL PAPILLOMA) was “active; positive”, the carcinogen call (Species: MOUSE, Strain/Sex: B6C3F1/MALE, Route: GAVAGE, 10, 20 MG/KG IN CORN OIL 5 D/WK FOR 103 WK (STUDY DURATION: 105 WK), 10, 20 MG/KG IN CORN OIL 5 D/WK FOR 103 WK (STUDY DURATION: 105 WK), Tumor Site: Type of Lesion: FORESTOMACH: SQUAMOUS PAPILLOMA) was “active; positive” and the carcinogen call (Species: MOUSE, Strain/Sex: B6C3F1/MALE, Route: ORAL, 317, 635 PPM IN DIET, TWA, 317, 635 PPM IN DIET, TWA) was “inactive; negative”. The carcinogen call (Species: RAT, Strain/Sex: BDIX/BLN/FEMALE, Route: INTRAGASTRIC, 0.1 MG IN 0.2 ML WATER 2/WK FOR 60 WK (STUDY DURATION: 111 WK)) was “inactive; negative”, the carcinogen call (Species: RAT, Strain/Sex: BDIX/BLN/FEMALE, Route: INTRAGASTRIC, 0.1 MG IN 0.2 ML WATER 3/WK FOR 60 WK (STUDY DURATION: 111 WK)) was “inactive; negative” and the carcinogen call (Species: RAT, Strain/Sex: BDIX/BLN/MALE, Route: INTRAGASTRIC, 0.1 MG IN 0.2 ML WATER 2/WK FOR 60 WK (STUDY DURATION: 111 WK)) was “inactive; negative”. For the same compound, the carcinogen call (Species: RAT, Strain/Sex: BDIX/BLN/MALE, Route: INTRAGASTRIC, 0.1 MG IN 0.2 ML WATER 3/WK FOR 60 WK (STUDY DURATION: 111 WK)) was “inactive; negative”, the carcinogen call (Species: RAT, Strain/Sex: F344/FEMALE, Route: GAVAGE, 4, 8 MG/KG IN CORN OIL 5 D/WK FOR 103 WK (STUDY DURATION: 104 WK), 4, 8 MG/KG IN CORN OIL 5 D/WK FOR 103 WK (STUDY DURATION: 104 WK), Tumor Site: Type of Lesion: PANCREAS: ACINAR CELL ADENOMA, HEMATOPOIETIC SYSTEM: MONONUCLEAR CELL LEUKEMIA, MAMMARY GLAND: FIBROADENOMA, CARCINOMA, Tumor Site: Type of Lesion: PANCREAS: ACINAR CELL ADENOMA, HEMATOPOIETIC SYSTEM: MONONUCLEAR CELL LEUKEMIA, MAMMARY GLAND: FIBROADENOMA, CARCINOMA) was “active; positive” and the carcinogen call (Species: RAT, Strain/Sex: F344/FEMALE, Route: GAVAGE, 4, 8 MG/KG IN CORN OIL 5 D/WK FOR 103 WK (STUDY DURATION: 105 WK), 4, 8 MG/KG IN CORN OIL 5 D/WK FOR 103 WK (STUDY DURATION: 105 WK), Tumor Site: Type of Lesion: PANCREAS: ADENOMA, MAMMARY GLAND: FIBROADENOMA) was “equivocal”. For the same compound, the carcinogen call (Species: RAT, Strain/Sex: F344/MALE, Route: GAVAGE, 4, 8 MG/KG IN CORN OIL 5 D/WK FOR 103 WK (STUDY DURATION: 104 WK), 4, 8 MG/KG IN CORN OIL 5 D/WK FOR 103 WK (STUDY DURATION: 104 WK), Tumor Site: Type of Lesion: PANCREAS: ACINAR CELL ADENOMA, HEMATOPOIETIC SYSTEM: MONONUCLEAR CELL LEUKEMIA) was “active; positive”, the carcinogen call (Species: RAT, Strain/Sex: F344/MALE, Route: GAVAGE, 4, 8 MG/KG IN CORN OIL 5 D/WK FOR 103 WK (STUDY DURATION: 105 WK), 4, 8 MG/KG IN CORN OIL 5 D/WK FOR 103 WK (STUDY DURATION: 105 WK), Tumor Site: Type of Lesion: PANCREAS: ADENOMA, HEMATOPOIETIC SYSTEM: MONONUCLEAR CELL LEUKEMIA) was “active; positive” and the carcinogen call (Species: RAT, Strain/Sex: OSBORNE-MENDEL/FEMALE, Route: ORAL, 318, 635 PPM IN DIET, TWA, 318, 635 PPM IN DIET, TWA) was “inactive; negative”. The carcinogen call (Species: RAT, Strain/Sex: OSBORNE-MENDEL/MALE, Route: ORAL, 150, 326 PPM IN DIET, TWA, 150, 326 PPM IN DIET, TWA) was “inactive; negative”.
For `CCOC(=O)C(C)Oc1ccc(Oc2nc3ccc(Cl)cc3o2)cc1` (stereo not drawn), the carcinogen call (Species: Mouse, Strain/Sex: Strain not given in source/Female (50/Group), Route: Oral, 2.5, 10, 40 ppm in diet for 24 mo, study duration 24 mo, 2.5, 10, 40 ppm in diet for 24 mo, study duration 24 mo) was “inactive; negative”, the carcinogen call (Species: Mouse, Strain/Sex: Strain not given in source/Male (50/Group), Route: Oral, 2.5, 10, 40 ppm in diet for 24 mo, study duration 24 mo, 2.5, 10, 40 ppm in diet for 24 mo, study duration 24 mo) was “inactive; negative” and the carcinogen call (Species: Rat, Strain/Sex: Strain not given in source/Female (60/Group), Route: Oral, 5, 30, 180 ppm (0; 0.33; 2.00; 11.87 mg/kg) in diet for up to 28 mo, study duration 28 mo, 5, 30, 180 ppm (0; 0.33; 2.00; 11.87 mg/kg) in diet for up to 28 mo, study duration 28 mo) was “inactive; negative”. For the same compound, the carcinogen call (Species: Rat, Strain/Sex: Strain not given in source/Male (60/Group), Route: Oral, 5, 30, 180 ppm (0; 0.26; 1.58; 9.43 mg/kg) in diet for up to 28 mo, study duration 28 mo, 5, 30, 180 ppm (0; 0.26; 1.58; 9.43 mg/kg) in diet for up to 28 mo, study duration 28 mo) was “inactive; negative”.
For `Nc1ccc(-n2c3ccccc3c3ccncc32)cc1`, the carcinogen call (Species: RAT, Strain/Sex: F344/MALE (30-33/GROUP), FEMALE (28-32/GROUP), Route: ORAL, 20, 40 PPM IN DIET FOR 85 WK (STUDY DURATION: 85 WK), 20, 40 PPM IN DIET FOR 85 WK (STUDY DURATION: 85 WK), Tumor Site: Type of Lesion: LIVER: ADENOMA, HEPATOCELLULAR CARCINOMA, COLON: ADENOCARCINOMA, THYROID: FOLLICULAR CELL ADENOMA AND CARCINOMA, MONONUC, Tumor Site: Type of Lesion: LIVER: ADENOMA, HEPATOCELLULAR CARCINOMA, COLON: ADENOCARCINOMA, THYROID: FOLLICULAR CELL ADENOMA AND CARCINOMA, MONONUC) was “active; positive”.
With `Oc1cc(O)c2c(c1)O[C@H](c1ccc(O)c(O)c1)[C@@H](O)C2` the carcinogen call (Species: RAT, Strain/Sex: F344/FEMALE, Route: ORAL, 2% IN DIET FOR 104 WK (STUDY DURATION: 104 WK), Tumor Site: Type of Lesion: GLANDULAR STOMACH: ADENOCARCINOMA) was “active; positive” and the carcinogen call (Species: RAT, Strain/Sex: F344/MALE, Route: ORAL, 2% IN DIET FOR 104 WK (STUDY DURATION: 104 WK), Tumor Site: Type of Lesion: GLANDULAR STOMACH: ADENOCARCINOMA) was “active; positive”.
